Measured values from PubChem BioAssay AID272 (DTP/NCI, 2004).
Where “and” joins values, the source holds several entries; their conditions need not be identical. Equal entries are not always repeated. Inconclusive results are not listed.

Test system: Lewis lung carcinoma i.m., BDF1 mice, T/C %
Test: NCI In Vivo Anticancer Drug Screen. Data for tumor model Lewis Lung Carcinoma (intramuscular) in B6D2F1 (BDF1) mice
Procedure, shortened: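 Transplantable tumour model; readout survival or tumour size; value = treated (T) / vehicle control (C).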

[1] = endpoint: median survival time, dose: 50.0 mg/kg/injection, schedule: Q01DX011 (ip), vehicle: saline, higher = longer survival
[2] = endpoint: median survival time, dose: 100.0 mg/kg/injection, schedule: Q01DX011 (ip), vehicle: saline, higher = longer survival
[3] = endpoint: mean tumor weight (est.), dose: 200.0 mg/kg/injection, schedule: Q01DX011 (ip), vehicle: saline, higher = larger tumour
[4] = endpoint: mean tumor weight (est.), dose: 400.0 mg/kg/injection, schedule: Q01DX011 (ip), vehicle: saline, higher = larger tumour
[5] = endpoint: median survival time, dose: 200.0 mg/kg/injection, schedule: Q01DX011 (ip), vehicle: saline, higher = longer survival
[6] = endpoint: median survival time, dose: 400.0 mg/kg/injection, schedule: Q01DX011 (ip), vehicle: saline, higher = longer survival
[7] = endpoint: mean tumor weight (est.), dose: 100.0 mg/kg/injection, schedule: Q01DX011 (ip), vehicle: saline, higher = larger tumour

C[C@]12C=CC(=O)C=C1CC[C@@H]1[C@@H]2C(=O)C[C@@]2(C)[C@H]1CC[C@]2(O)C(=O)CO
T/C (endpoint: mean tumor weight, dose: 23.0 mg/kg/injection, schedule: Q01DX009 (ip), vehicle: water, higher = larger tumour): 70 % of control
T/C (endpoint: mean tumor weight, dose: 25.0 mg/kg/injection, schedule: Q01DX011 (ip), vehicle: saline, higher = larger tumour): 45 % of control
T/C (endpoint: mean tumor weight, dose: 39.0 mg/kg/injection, schedule: Q01DX009 (ip), vehicle: water, higher = larger tumour): 50 % of control
T/C (endpoint: mean tumor weight, dose: 50.0 mg/kg/injection, schedule: Q01DX011 (ip), vehicle: saline, higher = larger tumour): 36 % of control
T/C (endpoint: mean tumor weight, dose: 100.0 mg/kg/injection, schedule: Q01DX011 (ip), vehicle: saline, higher = larger tumour): 17 % of control
T/C (endpoint: mean tumor weight, dose: 200.0 mg/kg/injection, schedule: Q01DX011 (ip), vehicle: saline, higher = larger tumour): 5 % of control
T/C (endpoint: median survival time, dose: 23.0 mg/kg/injection, schedule: Q01DX009 (ip), vehicle: none, higher = longer survival): 109 % of control
T/C (endpoint: median survival time, dose: 23.0 mg/kg/injection, schedule: Q01DX009 (ip), vehicle: water, higher = longer survival): 106 % of control
T/C (endpoint: median survival time, dose: 25.0 mg/kg/injection, schedule: Q01DX011 (ip), vehicle: carboxymethylcellulose (CMC), higher = longer survival): 106 % of control and 113 % of control
T/C (endpoint: median survival time, dose: 25.0 mg/kg/injection, schedule: Q01DX011 (ip), vehicle: saline, higher = longer survival): 112 % of control
T/C (endpoint: median survival time, dose: 25.0 mg/kg/injection, schedule: Q01DX011 (ip), vehicle: water, higher = longer survival): 110 % of control
T/C (endpoint: median survival time, dose: 39.0 mg/kg/injection, schedule: Q01DX009 (ip), vehicle: none, higher = longer survival): 104 % of control
T/C (endpoint: median survival time, dose: 39.0 mg/kg/injection, schedule: Q01DX009 (ip), vehicle: water, higher = longer survival): 90 % of control
T/C (endpoint: median survival time, dose: 50.0 mg/kg/injection, schedule: Q01DX011 (ip), vehicle: carboxymethylcellulose (CMC), higher = longer survival): 115 % of control and 121 % of control
T/C [1]: 104 % of control
T/C (endpoint: median survival time, dose: 50.0 mg/kg/injection, schedule: Q01DX011 (ip), vehicle: water, higher = longer survival): 108 % of control
T/C (endpoint: median survival time, dose: 52.0 mg/kg/injection, schedule: Q01DX007 (sc), vehicle: saline, higher = longer survival): 118 % of control and 119 % of control
T/C (endpoint: median survival time, dose: 65.0 mg/kg/injection, schedule: Q01DX009 (ip), vehicle: none, higher = longer survival): 95 % of control
T/C (endpoint: median survival time, dose: 86.0 mg/kg/injection, schedule: Q01DX007 (sc), vehicle: saline, higher = longer survival): 95 % of control and 113 % of control
T/C [2]: 102 % of control
T/C (endpoint: median survival time, dose: 100.0 mg/kg/injection, schedule: Q01DX011 (ip), vehicle: water, higher = longer survival): 94 % of control
T/C (endpoint: median survival time, dose: 108.0 mg/kg/injection, schedule: Q01DX009 (ip), vehicle: none, higher = longer survival): 46 % of control
T/C (endpoint: median survival time, dose: 144.0 mg/kg/injection, schedule: Q01DX007 (sc), vehicle: saline, higher = longer survival): 105 % of control
T/C (endpoint: median survival time, dose: 180.0 mg/kg/injection, schedule: Q01DX009 (ip), vehicle: none, higher = longer survival): 42 % of control
T/C (endpoint: median survival time, dose: 240.0 mg/kg/injection, schedule: Q01DX007 (sc), vehicle: saline, higher = longer survival): 68 % of control

Cc1nc(N)c(C)c(C(=O)O)n1
T/C (endpoint: median survival time, dose: 4.0 mg/kg/injection, schedule: Q01DX009 (ip), vehicle: water, higher = longer survival): 110 % of control
T/C (endpoint: median survival time, dose: 8.0 mg/kg/injection, schedule: Q01DX009 (ip), vehicle: water, higher = longer survival): 105 % of control
T/C (endpoint: median survival time, dose: 64.0 mg/kg/injection, schedule: Q01DX009 (ip), vehicle: water, higher = longer survival): 92 % of control

CCCCNC(C)(C)COC(=O)/C=C/c1ccc(OCCCC)cc1
T/C (endpoint: mean tumor weight (est.), dose: 12.5 mg/kg/injection, schedule: Q01DX011 (ip), vehicle: saline with Tween-80, higher = larger tumour): 89 % of control
T/C (endpoint: mean tumor weight (est.), dose: 25.0 mg/kg/injection, schedule: Q01DX011 (ip), vehicle: saline with Tween-80, higher = larger tumour): 82 % of control
T/C (endpoint: mean tumor weight (est.), dose: 50.0 mg/kg/injection, schedule: Q01DX011 (ip), vehicle: saline with Tween-80, higher = larger tumour): 67 % of control
T/C (endpoint: mean tumor weight (est.), dose: 100.0 mg/kg/injection, schedule: Q01DX011 (ip), vehicle: saline with Tween-80, higher = larger tumour): 59 % of control
T/C (endpoint: median survival time, dose: 12.5 mg/kg/injection, schedule: Q01DX011 (ip), vehicle: saline with Tween-80, higher = longer survival): 88 % of control
T/C (endpoint: median survival time, dose: 25.0 mg/kg/injection, schedule: Q01DX011 (ip), vehicle: saline with Tween-80, higher = longer survival): 110 % of control
T/C (endpoint: median survival time, dose: 50.0 mg/kg/injection, schedule: Q01DX011 (ip), vehicle: saline with Tween-80, higher = longer survival): 104 % of control
T/C (endpoint: median survival time, dose: 100.0 mg/kg/injection, schedule: Q01DX011 (ip), vehicle: saline with Tween-80, higher = longer survival): 98 % of control

NC(=S)N/N=C/c1ccc(O)cn1
T/C (endpoint: mean tumor weight, dose: 5.0 mg/kg/injection, schedule: Q03HX024 (ip), vehicle: other, higher = larger tumour): 60 % of control
T/C (endpoint: mean tumor weight, dose: 10.0 mg/kg/injection, schedule: Q03HX024 (ip), vehicle: other, higher = larger tumour): 46 % of control
T/C (endpoint: mean tumor weight, dose: 50.0 mg/kg/injection, schedule: Q01DX009 (ip), vehicle: other, higher = larger tumour): 15 % of control
T/C (endpoint: mean tumor weight, dose: 50.0 mg/kg/injection, schedule: Q01DX011 (ip), vehicle: other, higher = larger tumour): 18 % of control and 40 % of control
T/C (endpoint: mean tumor weight, dose: 100.0 mg/kg/injection, schedule: Q01DX011 (ip), vehicle: other, higher = larger tumour): 17 % of control
T/C (endpoint: mean tumor weight, dose: 200.0 mg/kg/injection, schedule: Q04DX003 (ip), vehicle: other, higher = larger tumour): 47 % of control
T/C (endpoint: mean tumor weight, dose: 400.0 mg/kg/injection, schedule: Q04DX003 (ip), vehicle: other, higher = larger tumour): 28 % of control
T/C (endpoint: median survival time, dose: 5.0 mg/kg/injection, schedule: Q03HX024 (ip), vehicle: other, higher = longer survival): 108 % of control
T/C (endpoint: median survival time, dose: 10.0 mg/kg/injection, schedule: Q03HX024 (ip), vehicle: other, higher = longer survival): 112 % of control
T/C (endpoint: median survival time, dose: 50.0 mg/kg/injection, schedule: Q01DX011 (ip), vehicle: other, higher = longer survival): 113 % of control
T/C (endpoint: median survival time, dose: 100.0 mg/kg/injection, schedule: Q01DX009 (ip), vehicle: other, higher = longer survival): 170 % of control
T/C (endpoint: median survival time, dose: 100.0 mg/kg/injection, schedule: Q01DX011 (ip), vehicle: other, higher = longer survival): 103 % of control
T/C (endpoint: median survival time, dose: 200.0 mg/kg/injection, schedule: Q04DX003 (ip), vehicle: other, higher = longer survival): 120 % of control

COC1C(O)C(O)OC(CO)C1O (configuration not stated)
T/C (endpoint: mean tumor weight (est.), dose: 500.0 mg/kg/injection, schedule: Q01DX011 (ip), vehicle: saline, higher = larger tumour): 83 % of control
T/C (endpoint: mean tumor weight (est.), dose: 1000.0 mg/kg/injection, schedule: Q01DX011 (ip), vehicle: saline, higher = larger tumour): 77 % of control
T/C (endpoint: median survival time, dose: 500.0 mg/kg/injection, schedule: Q01DX011 (ip), vehicle: saline, higher = longer survival): 106 % of control
T/C (endpoint: median survival time, dose: 1000.0 mg/kg/injection, schedule: Q01DX011 (ip), vehicle: saline, higher = longer survival): 112 % of control

CC(C)[C@](O)(C(=O)OCC1=CC[N+]2([O-])CC[C@@H](O)[C@@H]12)[C@H](C)O (some centres not stated)
T/C [3]: 76 % of control
T/C [4]: 78 % of control
T/C (endpoint: mean tumor weight, dose: 50.0 mg/kg/injection, schedule: Q01DX011 (ip), vehicle: water, higher = larger tumour): 78 % of control
T/C (endpoint: mean tumor weight, dose: 100.0 mg/kg/injection, schedule: Q01DX011 (ip), vehicle: water, higher = larger tumour): 44 % of control
T/C (endpoint: mean tumor weight, dose: 200.0 mg/kg/injection, schedule: Q01DX011 (ip), vehicle: water, higher = larger tumour): 56 % of control
T/C (endpoint: mean tumor weight, dose: 400.0 mg/kg/injection, schedule: Q01DX011 (ip), vehicle: water, higher = larger tumour): 47 % of control
T/C [5]: 101 % of control
T/C [6]: 101 % of control

CCCCC(CCC)(CCN)CCCC
T/C (endpoint: mean tumor weight (est.), dose: 1.0 mg/kg/injection, schedule: Q01DX011 (ip), vehicle: saline with Tween-80, higher = larger tumour): 90 % of control
T/C (endpoint: mean tumor weight (est.), dose: 2.0 mg/kg/injection, schedule: Q01DX011 (ip), vehicle: saline with Tween-80, higher = larger tumour): 97 % of control
T/C (endpoint: mean tumor weight (est.), dose: 4.0 mg/kg/injection, schedule: Q01DX011 (ip), vehicle: saline with Tween-80, higher = larger tumour): 102 % of control
T/C (endpoint: mean tumor weight (est.), dose: 8.0 mg/kg/injection, schedule: Q01DX011 (ip), vehicle: saline with Tween-80, higher = larger tumour): 69 % of control
T/C (endpoint: median survival time, dose: 1.0 mg/kg/injection, schedule: Q01DX011 (ip), vehicle: saline with Tween-80, higher = longer survival): 103 % of control
T/C (endpoint: median survival time, dose: 2.0 mg/kg/injection, schedule: Q01DX011 (ip), vehicle: saline with Tween-80, higher = longer survival): 92 % of control
T/C (endpoint: median survival time, dose: 4.0 mg/kg/injection, schedule: Q01DX011 (ip), vehicle: saline with Tween-80, higher = longer survival): 94 % of control
T/C (endpoint: median survival time, dose: 8.0 mg/kg/injection, schedule: Q01DX011 (ip), vehicle: saline with Tween-80, higher = longer survival): 92 % of control

O=C1NC(=O)C(F)(F)C(O)N1 (configuration not stated)
T/C (endpoint: mean tumor weight (est.), dose: 40.0 mg/kg/injection, schedule: Q01DX011 (ip), vehicle: saline, higher = larger tumour): 103 % of control
T/C (endpoint: mean tumor weight (est.), dose: 80.0 mg/kg/injection, schedule: Q01DX011 (ip), vehicle: saline, higher = larger tumour): 80 % of control
T/C (endpoint: mean tumor weight (est.), dose: 160.0 mg/kg/injection, schedule: Q01DX011 (ip), vehicle: saline, higher = larger tumour): 43 % of control
T/C (endpoint: median survival time, dose: 40.0 mg/kg/injection, schedule: Q01DX011 (ip), vehicle: saline, higher = longer survival): 98 % of control
T/C (endpoint: median survival time, dose: 80.0 mg/kg/injection, schedule: Q01DX011 (ip), vehicle: saline, higher = longer survival): 103 % of control

NCC(=O)c1ccc(O)c(O)c1
T/C [7]: 76 % of control
T/C [3]: 58 % of control
T/C [5]: 96 % of control

CC(=O)OC(C1CO1)C(OC(C)=O)C1CO1 (configuration not stated)
T/C (endpoint: median survival time, dose: 5.0 mg/kg/injection, schedule: Q01DX011 (ip), vehicle: saline, higher = longer survival): 105 % of control
T/C (endpoint: median survival time, dose: 10.0 mg/kg/injection, schedule: Q01DX011 (ip), vehicle: saline, higher = longer survival): 121 % of control

NC1CONC1=O (configuration not stated)
T/C (endpoint: mean tumor weight (est.), dose: 50.0 mg/kg/injection, schedule: Q01DX011 (ip), vehicle: saline, higher = larger tumour): 95 % of control
T/C [7]: 93 % of control
T/C [3]: 84 % of control
T/C [4]: 76 % of control
T/C [1]: 94 % of control
T/C [2]: 106 % of control
T/C [5]: 106 % of control
T/C [6]: 124 % of control
